From ChEMBL document CHEMBL4130361, “Synthesis, molecular modeling studies and bronchodilation properties of nicotinonitrile containing-compounds” (Eur J Med Chem, 2017)

Tested on: Trachea
Experiment: Induction of bronchodilation in guinea pig tracheal rings assessed as reduction in histamine-induced contractions
Format: functional, tissue-based
Conditions: Cavia porcellus

SMILES | IC50 [µM]
CCOc1nc(-c2ccc(F)cc2)cc(-c2ccc(Cl)cc2Cl)c1C#N | 8.02
CCOc1nc2c(c(-c3ccc(Cl)cc3Cl)c1C#N)CCCc1ccccc1-2 | 13
Cn1c(=O)c2nc[nH]c2n(C)c1=O [THEOPHYLLINE] | 11.6
COc1nc2c(c(-c3ccc(Cl)cc3Cl)c1C#N)-c1ccccc1C2 | 9.11
COc1nc2c(c(-c3ccc(Cl)cc3Cl)c1C#N)COc1ccccc1-2 | 6.11
CCOc1nc(-c2ccc(Br)cc2)cc(-c2ccc(Cl)cc2Cl)c1C#N | 12.4
COc1cc2c(cc1OC)-c1nc(OC)c(C#N)c(-c3ccc(Cl)cc3Cl)c1C2 | 6.8
N#Cc1c(-c2ccc(Cl)cc2Cl)cc(-c2ccc(Cl)cc2)nc1N1CCOCC1 | 6.71
CCN1CCN(c2nc(-c3ccc(Cl)cc3)cc(-c3ccc(Cl)cc3Cl)c2C#N)CC1 | 15.8
N#Cc1c(-c2ccc(Cl)cc2Cl)cc(-c2ccc(Cl)cc2)nc1Br | 9.14
COc1nc(-c2cccnc2)cc(-c2ccc(Cl)cc2Cl)c1C#N | 17.1
CCOc1nc2c(c(-c3ccc(Cl)cc3Cl)c1C#N)-c1ccccc1CC2 | 7.07
CCOc1nc2c(c(-c3ccc(Cl)cc3Cl)c1C#N)-c1ccccc1C2 | 11
COc1nc2c(c(-c3ccc(Cl)cc3Cl)c1C#N)-c1ccccc1CC2 | 6.36
COc1nc(-c2cccs2)cc(-c2ccc(Cl)cc2Cl)c1C#N | 3.28
CCOc1nc(-c2cccs2)cc(-c2ccc(Cl)cc2Cl)c1C#N | 8.71
COc1nc2c(c(-c3ccc(Cl)cc3Cl)c1C#N)CSc1ccccc1-2 | 11
N#Cc1c(-c2ccc(Cl)cc2Cl)cc(-c2ccc(Cl)cc2)nc1N1CCCCC1 | 7.83
COc1nc2c(c(-c3ccc(Cl)cc3Cl)c1C#N)CCCc1ccccc1-2 | 10
CN1CCN(c2nc(-c3ccc(Cl)cc3)cc(-c3ccc(Cl)cc3Cl)c2C#N)CC1 | 13

Results, then the compound that gave them:

IC50 [µM] | SMILES
9.89 | COc1ccc(-c2cc(-c3ccc(Cl)cc3Cl)c(C#N)c(OC)n2)cc1
11.8 | COc1nc(-c2ccncc2)cc(-c2ccc(Cl)cc2Cl)c1C#N
7.91 | COc1ccc(-c2cc(-c3ccc(Cl)cc3Cl)c(C#N)c(OC)n2)cc1OC
9.4 | COc1nc(-c2ccc3ccccc3c2)cc(-c2ccc(Cl)cc2Cl)c1C#N
8.02 | COc1nc(-c2ccc(Br)cc2)cc(-c2ccc(Cl)cc2Cl)c1C#N
9.38 | CCOc1nc(-c2ccc(Cl)cc2)cc(-c2ccc(Cl)cc2Cl)c1C#N
7.55 | COc1nc(-c2ccc(Cl)cc2)cc(-c2ccc(Cl)cc2Cl)c1C#N
5.34 | COc1nc(-c2ccccc2)cc(-c2ccc(Cl)cc2Cl)c1C#N
10.6 | COc1nc(-c2ccc(C)cc2)cc(-c2ccc(Cl)cc2Cl)c1C#N
7.43 | COc1nc(-c2ccc(F)cc2)cc(-c2ccc(Cl)cc2Cl)c1C#N

Tested on: Trachea
Experiment: Potency index, ratio of theophylline IC50 to test compound IC50 for reduction in histamine-induced contractions in guinea pig tracheal rings
Format: functional, Cavia porcellus
Conditions: not given

SMILES | Ratio IC50
COc1nc(-c2ccccc2)cc(-c2ccc(Cl)cc2Cl)c1C#N | 2
